Columns and labels:
Test in all cases: drug sensitivity score (DSS) from 5-dose viability curve (DSS (area-based score, 0 = no response)); higher = more sensitive (stronger viability inhibition); extreme values may be limits of the assay
[1] = tested on: MDCK p60AmotL2-inducible + doxycycline (p60AmotL2 expressing); conditions: doxycycline: 10 ng/mL; 72 h
In short: (§1)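 Pre-spotted 384-well plates held 528 oncology drugs, each at five doses from 1 to 10,000 nM. Parental and doxycycline-inducible MDCK cells, exposed beforehand to 10 ng/mL doxycycline in the medium, were added at 2000 cells/well and incubated 72 h at 37 °C. Viability came from CellTiter-Glo luminescence normalized per plate to vehicle and positive controls, and the Breeze pipeline fitted dose-response curves to give drug sensitivity scores.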

[2] = tested on: MDCK wild-type + doxycycline; conditions: doxycycline: 10 ng/mL; 72 h
In short: as §1

[3] = tested on: MDCK wild-type - doxycycline; conditions: doxycycline: none; 72 h
In short: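 Parental MDCK cells without doxycycline were dispensed at 2000 cells/well onto pre-spotted 384-well plates. The plates held an oncology library of 528 drugs at five doses (1-10,000 nM) and were incubated 72 h at 37 °C. Viability was read as CellTiter-Glo luminescence and scaled per plate between vehicle and positive controls. Drug sensitivity scores came from dose-response curve fits in the Breeze pipeline.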

Compound | drug sensitivity score [1] | drug sensitivity score [2] | drug sensitivity score [3]
NC(=O)NO [Hydroxyurea] | 0 | 0 | 2
CNC(=O)c1cc(Oc2ccc(NC(=O)Nc3ccc(Cl)c(C(F)(F)F)c3)cc2)ccn1 [Sorafenib] | 0 | 0 | 0
COc1ccccc1S(=O)(=O)Nc1ccc2c(c1)CN(C)C(=O)N2 [PFI-1] | 5.3 | 2.4 | 0.3
Nc1cc(C(F)(F)F)c(-c2cc(N3CCOCC3)nc(N3CCOCC3)n2)cn1 [Buparlisib] | 6.3 | 7 | 5.1
Cn1cc(C2=Nc3cc(NC(=O)C(N)C4CCCCC4)cc4c3C2=CNNC4=O)cn1 (stereo unspecified) | 1.1 | 0 | 0
CC(C)N(C[C@H]1O[C@@H](n2cnc3c(N)ncnc32)[C@H](O)[C@@H]1O)[C@H]1C[C@@H](CCc2nc3cc(C(C)(C)C)ccc3[nH]2)C1 [Pinometostat] | 0 | 0 | 0
CC[C@H](CC#N)OC(=O)N[C@@H](C)c1cccc(NC(=O)Nc2ccc(-c3cnco3)c(OC)c2)c1 [AVN944] | 18.5 | 12.6 | 11.1
CCCS(=O)(=O)Nc1ccc(F)c(C(=O)c2c[nH]c3ncc(-c4ccc(Cl)cc4)cc23)c1F [Vemurafenib] | 0 | 0 | 0
CN1CCN(c2ccc(C(=O)Nc3n[nH]c4ccc(Cc5cc(F)cc(F)c5)cc34)c(NC3CCOCC3)c2)CC1 [Entrectinib] | 0.6 | 0 | 0
C[C@@H]1C[C@H]2[C@@H]3CCC4=CC(=O)C=C[C@]4(C)[C@@]3(F)[C@@H](O)C[C@]2(C)[C@@]1(O)C(=O)CO [Dexamethasone] | 0 | 0 | 0
CO[C@H]1C[C@@H]2CC[C@@H](C)[C@@](O)(O2)C(=O)C(=O)N2CCCC[C@H]2C(=O)O[C@H]([C@H](C)C[C@@H]2CC[C@@H](OP(C)(C)=O)[C@H](OC)C2)CC(=O)[C@H](C)/C=C(\C)[C@@H](O)[C@@H](OC)C(=O)[C@H](C)C[C@H](C)/C=C/C=C/C=C/1C [Ridaforolimus] | 9.8 | 0.6 | 0
O=C1c2c(O)ccc(O)c2C(=O)c2c(NCCNCCO)ccc(NCCNCCO)c21 [Mitoxantrone] | 15.5 | 8.9 | 7.1
CN(C)C(=O)c1ccc(S(=O)(=O)c2ccc(NC(=O)[C@@](C)(O)C(F)(F)F)c(Cl)c2)cc1 [AZD7545] | 0 | 0 | 0
C[C@]12CC[C@@H]3c4ccc(O)cc4C[C@@H](CCCCCCCCC[S+]([O-])CCCC(F)(F)C(F)(F)F)[C@H]3[C@@H]1CC[C@@H]2O (stereo partly specified) [Fulvestrant] | 0 | 0 | 0
Cc1ccc(NC(=O)c2ccc(CN3CCN(C)CC3)cc2)cc1Nc1nccc(-c2cccnc2)n1 [Imatinib] | 3.4 | 0 | 2.7
O=C(c1cccc(Cl)c1F)N1CCN(Cc2cccc(Nc3nccs3)n2)CC1 [MK-8745] | 12.4 | 9.5 | 6.6
COc1nc(N)nc2c1ncn2[C@@H]1O[C@H](CO)[C@@H](O)[C@@H]1O [Nelarabine] | 0 | 0 | 0
CCN(CC)CCOc1ccc(C(=C(Cl)c2ccccc2)c2ccccc2)cc1 [Clomifene] | 5.3 | 4.7 | 4.4
CCS(=O)(=O)Nc1ccc(Oc2ccc(F)cc2F)c(-c2cn(C)c(=O)c3[nH]ccc23)c1 [Mivebresib] | 29.9 | 23.8 | 18.7
Cc1sc2c(c1C)C(c1ccc(Cl)cc1)=N[C@@H](CC(=O)NCCCCNC(=O)COc1cccc3c1C(=O)N(C1CCC(=O)NC1=O)C3=O)c1nnc(C)n1-2 (stereo partly specified) [dBET1] | 9.3 | 8 | 9.5
CNC(=O)c1nn(C)c2c1C(C)(C)Cc1cnc(Nc3ccc(N4CCN(C)CC4)cc3)nc1-2 [Milciclib] | 13.2 | 14.5 | 12.4
C[C@H]1CN(C2COC2)CCN1c1ccc(Nc2cc(-c3ccnc(N4CCn5c(cc6c5CC(C)(C)C6)C4=O)c3CO)cn(C)c2=O)nc1 [GDC-0853] | 0 | 0 | 0

From the supplement of paper PMC11003180
